Experimental data: ChEMBL document CHEMBL5506027, “Discovery of a Novel and Potent Cyclin-Dependent Kinase 8/19 (CDK8/19) Inhibitor for the Treatment of Cancer” (J Med Chem, 2024)
Blank lines part the entries; values can stand above or below the molecule they belong to.

Experiments:
[1] = Selectivity ratio of IC50 for CDK2/CyclinE1 (unknown origin) to IC50 for CDK8/Cyclin C (unknown origin)
[2] = Oral bioavailability in dog at 3 mg/kg measured upto 24 hrs by LC-MS/MS analysis; format: ADME, organism-based, Canis lupus familiaris; settings: in vivo
[3] = Selectivity ratio of IC50 for CDK1/CyclinA2 (unknown origin) to IC50 for CDK8/Cyclin C (unknown origin)
[4] = Tmax in mouse at 5 mg/kg, po measured upto 24 hrs by LC-MS/MS analysis; format: ADME, organism-based; settings: in vivo
[5] = Tmax in rat at 5 mg/kg, po measured upto 24 hrs by LC-MS/MS analysis; format: ADME, organism-based; settings: in vivo
[6] = Cmax in dog at 5 mg/kg, po measured upto 24 hrs by LC-MS/MS analysis; format: ADME, organism-based, Canis lupus familiaris; settings: in vivo
Z-138 [7] = experiment: Synergistic antitumor activity against human Z138 cells xenografted in CB17 SCID mouse assessed as tumor growth inhibition at 2.5 to 5 mg/kg, po administered once daily for 21 days in presence of rituximab; format: functional; settings: dose 2.5-5 mg/kg, time 21 day
[8] = AUC(0 to 24 hrs) in monkey at 5 mg/kg, po measured upto 24 hrs by LC-MS/MS analysis; format: ADME, organism-based, Macaca mulatta; settings: rhesus monkey, in vivo
MV4-11 [9] = experiment: Potency index, ratio of RVU120 IC50 to test compound IC50 for antiproliferative activity against human MV4-11 cells; format: functional
[10] = target: Cyclin-dependent kinase 5/CDK5 activator 1 (Homo sapiens) (UniProt Q00535+Q15078); experiment: Inhibition of CDK5/p25NCK (unknown origin) at 1 uM by luminescence based assay relative to control; format: protein-complex assay
Chain of Cyclin-dependent kinase 5/CDK5 activator 1 (Homo sapiens) (Q00535 whole entry): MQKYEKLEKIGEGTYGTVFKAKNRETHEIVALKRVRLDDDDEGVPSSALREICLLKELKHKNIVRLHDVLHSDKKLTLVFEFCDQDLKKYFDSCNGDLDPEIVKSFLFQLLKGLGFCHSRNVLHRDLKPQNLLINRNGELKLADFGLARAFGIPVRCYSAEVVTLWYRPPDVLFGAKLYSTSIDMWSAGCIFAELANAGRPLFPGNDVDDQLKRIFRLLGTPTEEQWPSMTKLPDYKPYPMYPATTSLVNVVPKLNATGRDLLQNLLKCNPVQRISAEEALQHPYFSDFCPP
Chain of Cyclin-dependent kinase 5/CDK5 activator 1 (Homo sapiens) (Q15078 99-307 partner limits assumed): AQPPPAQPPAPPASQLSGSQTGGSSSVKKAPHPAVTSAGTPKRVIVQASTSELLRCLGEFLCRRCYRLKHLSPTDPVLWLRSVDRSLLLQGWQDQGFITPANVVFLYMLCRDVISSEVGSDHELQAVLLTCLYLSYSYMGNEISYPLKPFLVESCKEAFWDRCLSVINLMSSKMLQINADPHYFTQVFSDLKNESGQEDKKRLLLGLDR

[11] = Dose normalized AUC in mouse at 30 mg/kg, po measured upto 24 hrs by LC-MS/MS analysis; format: ADME, organism-based; settings: in vivo
[12] = Toxicity in CB17 SCID mouse xenografted with human Z138 cells assessed as change in body weight at 2.5 to 5 mg/kg, po qd for 3 weeks in presence of rituximab; format: organism-based; settings: in vivo, 504 h, dose 2.5-5 mg/kg
[13] = target: CDK2/Cyclin A2 (Homo sapiens) (UniProt P24941+P20248); experiment: Inhibition of CDK2/CyclinA2 (unknown origin) at 1 uM by luminescence based assay relative to control; format: protein-complex assay
MV4-11 [14] = experiment: Antitumor activity against human MV4-11 cells xenografted in BALB/c nude mouse assessed as tumor growth inhibition at 3 mg/kg, po qd and measured twice a week for 3 weeks; format: functional; settings: MV4-11, 504 h, read-out: TGI
[15] = Cmax in rat at 10 mg/kg, po measured upto 24 hrs by LC-MS/MS analysis; format: ADME, organism-based; settings: in vivo
[16] = target: CDK4/Cyclin D3 (Homo sapiens) (UniProt P11802+P30281); experiment: Inhibition of CDK4/cyclinD3 (unknown origin) at 1 uM by luminescence based assay relative to control; format: protein-complex assay
MV4-11 [17] = experiment: Antitumor activity against human MV4-11 cells xenografted in po dosed BALB/c nude mouse assessed as tumor growth inhibition measured twice a week for 3 weeks; format: functional, organism-based; settings: dose 3-10 mg/kg
MDA-MB-231 = experiment: Inhibition of cell growth in human MDA-MB-231 cells; format: functional, cell-based
[18] = Tmax in dog at 5 mg/kg, po measured upto 24 hrs by LC-MS/MS analysis; format: ADME, organism-based, Canis lupus familiaris; settings: in vivo
[19] = Oral bioavailability in rat at 10 mg/kg measured upto 24 hrs by LC-MS/MS analysis; format: ADME, organism-based; settings: in vivo
[20] = Tmax in rat at 10 mg/kg, po measured upto 24 hrs by LC-MS/MS analysis; format: ADME, organism-based; settings: in vivo
[21] = Oral bioavailability in dog at 5 mg/kg measured upto 24 hrs by LC-MS/MS analysis; format: ADME, organism-based, Canis lupus familiaris; settings: in vivo
[22] = target: CDK7/Cyclin H/MNAT1 (Homo sapiens) (UniProt P51946+P50613+P51948); experiment: Inhibition of CDK7/cyclinH/MAT1 (unknown origin) at 1 uM by luminescence based assay relative to control; format: protein-complex assay
[23] = target: CDK6/cyclin D3 (Homo sapiens) (UniProt P30281+Q00534); experiment: Inhibition of CDK6/cyclinD3 (unknown origin) at 1 uM by luminescence based assay relative to control; format: protein-complex assay
[24] = target: Cyclin-Y/Cyclin-dependent kinase 16 (Homo sapiens) (UniProt Q00536+Q8ND76); experiment: Inhibition of CDK16/cyclinY (unknown origin) at 1 uM by luminescence based assay relative to control; format: protein-complex assay
Z-138 [25] = experiment: Antitumor activity against human Z138 cells xenografted in po dosed CB17 SCID mouse assessed as tumor growth inhibition administered once daily for 21 days; format: functional, organism-based; settings: dose 2.5-5 mg/kg, time 21.0 day
[26] = target: CDK6/cyclin D1 (Homo sapiens) (UniProt P24385+Q00534); experiment: Inhibition of CDK6/cyclinD1 (unknown origin) at 1 uM by luminescence based assay relative to control; format: protein-complex assay
[27] = target: Cyclin-dependent kinase 8 (Homo sapiens, UniProt P49336); experiment: Inhibition of CDK8 (unknown origin) assessed as residual activity at 500 nM by ADP-Glo assay
Chain of Cyclin-dependent kinase 8 (P49336 whole entry): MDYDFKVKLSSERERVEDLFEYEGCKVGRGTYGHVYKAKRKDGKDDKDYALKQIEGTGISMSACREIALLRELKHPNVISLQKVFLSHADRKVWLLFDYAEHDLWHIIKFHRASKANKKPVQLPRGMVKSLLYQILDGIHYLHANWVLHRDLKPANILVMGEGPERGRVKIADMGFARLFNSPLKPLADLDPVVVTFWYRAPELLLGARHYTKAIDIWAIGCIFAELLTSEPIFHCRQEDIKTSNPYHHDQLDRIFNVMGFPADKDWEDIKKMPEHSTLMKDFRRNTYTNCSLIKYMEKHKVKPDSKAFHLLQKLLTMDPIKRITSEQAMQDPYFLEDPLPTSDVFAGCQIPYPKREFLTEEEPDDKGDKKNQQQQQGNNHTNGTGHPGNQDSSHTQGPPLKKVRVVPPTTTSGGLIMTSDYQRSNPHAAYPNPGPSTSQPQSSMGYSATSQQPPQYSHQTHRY

MV4-11 [28] = experiment: Antitumor activity against human MV4-11 cells xenografted in BALB/c nude mouse assessed as tumor growth inhibition at 10 mg/kg, po qd and measured twice a week for 3 weeks; format: functional; settings: MV4-11, 504 h, read-out: TGI
[29] = Half-life in monkey at 1 mg/kg, iv measured upto 24 hrs by LC-MS/MS anlaysis; format: ADME, organism-based, Macaca mulatta; settings: rhesus monkey, in vivo
CDK8/Cyclin C = CDK8/Cyclin C (Homo sapiens, UniProt P49336); experiment: Displacement of tracer 236 from CDK8/cyclin C (unknown origin) preincubated for 15 mins followed by tracer addition and measured after 60 mins by FRET based lanthascreen assay; format: protein-complex assay
Chain of CDK8/Cyclin C (P49336 whole entry): as above
Chain of CDK8/Cyclin C (P24863 whole entry, further chain): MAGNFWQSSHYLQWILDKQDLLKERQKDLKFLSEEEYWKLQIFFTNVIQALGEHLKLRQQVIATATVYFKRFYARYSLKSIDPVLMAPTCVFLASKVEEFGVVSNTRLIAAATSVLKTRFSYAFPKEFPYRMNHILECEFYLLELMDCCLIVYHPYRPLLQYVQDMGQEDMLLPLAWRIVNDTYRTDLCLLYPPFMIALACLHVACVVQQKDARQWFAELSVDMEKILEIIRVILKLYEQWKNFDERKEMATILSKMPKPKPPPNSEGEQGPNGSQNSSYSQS

Homo sapiens = organism: Homo sapiens; experiment: Inhibition of CDK1/CyclinA2 (unknown origin) at 1 uM by luminescence based assay relative to control
[30] = Tmax in monkey at 5 mg/kg, po measured upto 24 hrs by LC-MS/MS analysis; format: ADME, organism-based, Macaca mulatta; settings: rhesus monkey, in vivo

Ratio IC50 [1]: 0.1
bioavailability [2]: 136%
Ratio IC50 [3]: 1.2
Tmax [4]: 1.3 h
Tmax [5]: 1.67 h
Structure (SMILES): Cc1c(Br)c(Br)c2c3c1nc(N1CCNCC1)n3CCC2 [SEL-120 FREE BASE]

Cmax [6]: 475 ng/mL
AUC(0-t) at 24 h [8]: 12500 ng·h/mL
inhibition [10]: 88.3%
AUC/dose [11]: 796 ng·h/mL
inhibition [13]: 84.9%
Cmax [15]: 190 ng/mL
inhibition [16]: 58%
IC50 (MDA-MB-231): 40 nM
Tmax [18]: 2 h
bioavailability [19]: 89%
Tmax [20]: 2 h
bioavailability [21]: 85%
inhibition [22]: 74.4%
inhibition [23]: 2.33%
inhibition [24]: 64.1%
inhibition [26]: 19.4%
Activity [27]: 14%
half-life [29]: 7 h
IC50 (CDK8/Cyclin C): 2.1 nM
inhibition (Homo sapiens): 76.2%
Tmax [30]: 4 h
Structure (SMILES): FC(F)c1c(Br)c(Br)cc2c1nc(N1CCNCC1)n2C1CCOCC1
TGI (Z-138 [7]): 86%
Ratio IC50 (MV4-11 [9]): 7
Activity [12]: Non-Toxic
inhibition in vivo at 3 mg/kg (MV4-11 [14]): 29%
Activity (MV4-11 [17]): Dose-Dependent Effect
Activity (Z-138 [25]): Dose-Dependent Effect
inhibition in vivo at 10 mg/kg (MV4-11 [28]): 36%
